Measurements reported in article PMC8944975, “Secretin Receptor as a Target in Gastrointestinal Cancer: Expression Analysis and Ligand Development” (Biomedicines, 2022).
Like-named read-outs stand apart in the source and are kept apart here. Where a SMILES comes first, the peptide text is derived from it. [ ]: non-standard residue; d: D form.

Target: human SCTR (Homo sapiens, UniProt P47872)
Assay: β-arr2-GFP translocation assay run in antagonist mode; for IC50, inhibition of β-arr2-GFP translocation (Table 3): peptide 5 min at 37 °C
Format: cell-based
Parameters: expressed in transfected cells; host or cells: U2OS (human osteosarcoma), stably co-transfected with β-arrestin2-GFP
From the text: U2OS-SCTR/β-arr2-GFP: human osteosarcoma cell line U2OS (purchased from ATCC/LGC Standards, Wesel, Germany) were stably transfected with plasmids encoding SCTR (Homo sapiens) and the fusion protein β-arrestin2-green fluorescent protein (GFP) (Rattus norvegicus-Aequorea victoria) (β-arr2-GFP).
For analysis of antagonistic effects on SCTR, a slightly modified protocol of the β-arr2-GFP translocation was used. […] For analysis, cells were terminally fixed and permeabilized as previously described. The additional monitoring of IDCC fluorescence in the near-infrared channel (667 nm) provided another measure for receptor binding and activation.

[1] = read-out: IC50, inhibition of β-arr2-GFP translocation (Table 3)

Chain of human SCTR (P47872 23-440): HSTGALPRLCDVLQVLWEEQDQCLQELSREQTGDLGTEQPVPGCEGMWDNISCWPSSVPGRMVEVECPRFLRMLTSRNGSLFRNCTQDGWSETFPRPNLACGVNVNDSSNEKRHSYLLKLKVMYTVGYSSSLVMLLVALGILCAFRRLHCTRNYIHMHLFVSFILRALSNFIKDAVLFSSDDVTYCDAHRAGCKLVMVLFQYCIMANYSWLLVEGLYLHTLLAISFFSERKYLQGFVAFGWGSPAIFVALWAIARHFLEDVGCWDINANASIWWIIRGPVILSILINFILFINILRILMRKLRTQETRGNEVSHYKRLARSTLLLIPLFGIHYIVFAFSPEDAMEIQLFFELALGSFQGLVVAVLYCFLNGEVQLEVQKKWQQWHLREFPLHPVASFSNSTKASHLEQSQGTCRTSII

IC50 (read-out: IC50, inhibition of β-arr2-GFP translocation (Table 2)) [nM] | IC50 [1] [nM] | SMILES
2340 ± 366 | – | CC(C)C[C@H](NC(=O)CNC(=O)[C@H](CCC(N)=O)NC(=O)[C@H](CC(C)C)NC(=O)[C@H](CC(C)C)NC(=O)[C@H](CCCNC(=N)N)NC(=O)[C@H](CCC(N)=O)NC(=O)[C@H](CC(C)C)NC(=O)[C@H](CCCNC(=N)N)NC(=O)[C@H](C)NC(=O)CNC(=O)[C@H](CCC(=O)O)NC(=O)[C@H](CCCNC(=N)N)NC(=O)[C@H](CC(C)C)NC(=O)[C@H](CCCNC(=N)N)NC(=O)[C@H](CO)NC(=O)[C@H](CC(C)C)NC(=O)[C@H](CCC(=O)O)NC(=O)[C@H](CO)NC(=O)[C@@H](NC(=O)[C@@H](N)Cc1ccccc1)[C@@H](C)O)C(=O)N[C@H](C(=O)O)C(C)C [Peptide 119]
– | 924 ± 237 | CC(C)C[C@H](NC(=O)CNC(=O)[C@H](CCC(N)=O)NC(=O)[C@H](CC(C)C)NC(=O)[C@H](CC(C)C)NC(=O)[C@H](CCCNC(=N)N)NC(=O)[C@H](CCC(N)=O)NC(=O)[C@H](CC(C)C)NC(=O)[C@H](CCCNC(=N)N)NC(=O)[C@H](C)NC(=O)CNC(=O)[C@H](CCC(=O)O)NC(=O)[C@H](CCCNC(=N)N)NC(=O)[C@H](CC(C)C)NC(=O)[C@H](CCCNC(=N)N)NC(=O)[C@H](CO)NC(=O)[C@H](CC(C)C)NC(=O)[C@H](CCC(=O)O)NC(=O)[C@H](CO)NC(=O)[C@@H](NC(=O)[C@H](Cc1ccccc1)NC(=O)[C@@H](N)CCCNC(=N)N)[C@@H](C)O)C(=O)N[C@H](C(=O)O)C(C)C [Peptide 124]
– | 1360 ± 322 | CC(C)C[C@H](NC(=O)CNC(=O)[C@H](CCC(N)=O)NC(=O)[C@H](CC(C)C)NC(=O)[C@H](CC(C)C)NC(=O)[C@H](CCCNC(=N)N)NC(=O)[C@H](CCC(N)=O)NC(=O)[C@H](CC(C)C)NC(=O)[C@H](CCCNC(=N)N)NC(=O)[C@H](C)NC(=O)CNC(=O)[C@H](CCC(=O)O)NC(=O)[C@H](CCCNC(=N)N)NC(=O)[C@H](CC(C)C)NC(=O)[C@H](CCCNC(=N)N)NC(=O)[C@H](CO)NC(=O)[C@H](CC(C)C)NC(=O)[C@H](CCC(=O)O)NC(=O)[C@H](CO)NC(=O)[C@@H](NC(=O)[C@H](Cc1ccccc1)NC(=O)[C@H](N)CCCNC(=N)N)[C@@H](C)O)C(=O)N[C@H](C(=O)O)C(C)C [Peptide 125]
– | 1760 ± 322 | CC(C)C[C@H](NC(=O)CNC(=O)[C@H](CCC(N)=O)NC(=O)[C@H](CC(C)C)NC(=O)[C@H](CC(C)C)NC(=O)[C@H](CCCNC(=N)N)NC(=O)[C@H](CCC(N)=O)NC(=O)[C@H](CC(C)C)NC(=O)[C@H](CCCNC(=N)N)NC(=O)[C@H](C)NC(=O)CNC(=O)[C@H](CCC(=O)O)NC(=O)[C@H](CCCNC(=N)N)NC(=O)[C@H](CC(C)C)NC(=O)[C@H](CCCNC(=N)N)NC(=O)[C@H](CO)NC(=O)[C@H](CC(C)C)NC(=O)[C@H](CCC(=O)O)NC(=O)[C@H](CO)NC(=O)[C@@H](NC(=O)[C@H](C)NC(=O)[C@H](N)CCCNC(=N)N)[C@@H](C)O)C(=O)N[C@H](C(=O)O)C(C)C [Peptide 126]
– | 1610 ± 185 | CC(C)C[C@H](NC(=O)CNC(=O)[C@H](CCC(N)=O)NC(=O)[C@H](CC(C)C)NC(=O)[C@H](CC(C)C)NC(=O)[C@H](CCCNC(=N)N)NC(=O)[C@H](CCC(N)=O)NC(=O)[C@H](CC(C)C)NC(=O)[C@H](CCCNC(=N)N)NC(=O)[C@H](C)NC(=O)CNC(=O)[C@H](CCC(=O)O)NC(=O)[C@H](CCCNC(=N)N)NC(=O)[C@H](CC(C)C)NC(=O)[C@H](CCCNC(=N)N)NC(=O)[C@H](CO)NC(=O)[C@H](CC(C)C)NC(=O)[C@H](CCC(=O)O)NC(=O)[C@H](CO)NC(=O)[C@H](C)NC(=O)[C@H](Cc1ccccc1)NC(=O)[C@H](N)CCCNC(=N)N)C(=O)N[C@H](C(=O)O)C(C)C [Peptide 127]
– | 897 ± 108 | CC(C)C[C@H](NC(=O)CNC(=O)[C@H](CCC(N)=O)NC(=O)[C@H](CC(C)C)NC(=O)[C@H](CC(C)C)NC(=O)[C@H](CCCNC(=N)N)NC(=O)[C@H](CCC(N)=O)NC(=O)[C@H](CC(C)C)NC(=O)[C@H](CCCNC(=N)N)NC(=O)[C@H](C)NC(=O)CNC(=O)[C@H](CCC(=O)O)NC(=O)[C@H](CCCNC(=N)N)NC(=O)[C@H](CC(C)C)NC(=O)[C@H](CCCNC(=N)N)NC(=O)[C@H](CO)NC(=O)[C@H](CC(C)C)NC(=O)[C@H](CCC(=O)O)NC(=O)[C@H](C)NC(=O)[C@@H](NC(=O)[C@H](Cc1ccccc1)NC(=O)[C@H](N)CCCNC(=N)N)[C@@H](C)O)C(=O)N[C@H](C(=O)O)C(C)C [Peptide 128] (H-[dR]FTAELSRLREGARLQRLLQGLV-OH)
– | 1140 ± 281 | CC(C)C[C@H](NC(=O)CNC(=O)[C@H](CCC(N)=O)NC(=O)[C@H](CC(C)C)NC(=O)[C@H](CC(C)C)NC(=O)[C@H](CCCNC(=N)N)NC(=O)[C@H](CCC(N)=O)NC(=O)[C@H](CC(C)C)NC(=O)[C@H](CCCNC(=N)N)NC(=O)[C@H](C)NC(=O)CNC(=O)[C@H](CCC(=O)O)NC(=O)[C@H](CCCNC(=N)N)NC(=O)[C@H](CC(C)C)NC(=O)[C@H](CCCNC(=N)N)NC(=O)[C@H](CO)NC(=O)[C@H](CC(C)C)NC(=O)[C@H](C)NC(=O)[C@H](CO)NC(=O)[C@@H](NC(=O)[C@H](Cc1ccccc1)NC(=O)[C@H](N)CCCNC(=N)N)[C@@H](C)O)C(=O)N[C@H](C(=O)O)C(C)C [Peptide 129] (H-[dR]FTSALSRLREGARLQRLLQGLV-OH)
– | 998 ± 142 | CC(C)C[C@H](NC(=O)CNC(=O)[C@H](CCC(N)=O)NC(=O)[C@H](CC(C)C)NC(=O)[C@H](CC(C)C)NC(=O)[C@H](CCCNC(=N)N)NC(=O)[C@H](CCC(N)=O)NC(=O)[C@H](CC(C)C)NC(=O)[C@H](CCCNC(=N)N)NC(=O)[C@H](C)NC(=O)CNC(=O)[C@H](CCC(=O)O)NC(=O)[C@H](CCCNC(=N)N)NC(=O)[C@H](CC(C)C)NC(=O)[C@H](CCCNC(=N)N)NC(=O)[C@H](C)NC(=O)[C@H](CC(C)C)NC(=O)[C@H](CCC(=O)O)NC(=O)[C@H](CO)NC(=O)[C@@H](NC(=O)[C@H](Cc1ccccc1)NC(=O)[C@H](N)CCCNC(=N)N)[C@@H](C)O)C(=O)N[C@H](C(=O)O)C(C)C [Peptide 131] (H-[dR]FTSELARLREGARLQRLLQGLV-OH)
– | 2480 ± 579 | CC(C)C[C@H](NC(=O)CNC(=O)[C@H](CCC(N)=O)NC(=O)[C@H](CC(C)C)NC(=O)[C@H](CC(C)C)NC(=O)[C@H](CCCNC(=N)N)NC(=O)[C@H](CCC(N)=O)NC(=O)[C@H](CC(C)C)NC(=O)[C@H](CCCNC(=N)N)NC(=O)[C@H](C)NC(=O)CNC(=O)[C@H](CCC(=O)O)NC(=O)[C@H](CCCNC(=N)N)NC(=O)[C@H](CC(C)C)NC(=O)[C@H](C)NC(=O)[C@H](CO)NC(=O)[C@H](CC(C)C)NC(=O)[C@H](CCC(=O)O)NC(=O)[C@H](CO)NC(=O)[C@@H](NC(=O)[C@H](Cc1ccccc1)NC(=O)[C@H](N)CCCNC(=N)N)[C@@H](C)O)C(=O)N[C@H](C(=O)O)C(C)C [Peptide 132] (H-[dR]FTSELSALREGARLQRLLQGLV-OH)
– | 884 ± 169 | CC(C)C[C@H](NC(=O)CNC(=O)[C@H](CCC(N)=O)NC(=O)[C@H](CC(C)C)NC(=O)[C@H](CC(C)C)NC(=O)[C@H](CCCNC(=N)N)NC(=O)[C@H](CCC(N)=O)NC(=O)[C@H](CC(C)C)NC(=O)[C@H](CCCNC(=N)N)NC(=O)[C@H](C)NC(=O)CNC(=O)[C@H](CCC(=O)O)NC(=O)[C@H](CCCNC(=N)N)NC(=O)[C@H](C)NC(=O)[C@H](CCCNC(=N)N)NC(=O)[C@H](CO)NC(=O)[C@H](CC(C)C)NC(=O)[C@H](CCC(=O)O)NC(=O)[C@H](CO)NC(=O)[C@@H](NC(=O)[C@H](Cc1ccccc1)NC(=O)[C@H](N)CCCNC(=N)N)[C@@H](C)O)C(=O)N[C@H](C(=O)O)C(C)C [Peptide 133] (H-[dR]FTSELSRAREGARLQRLLQGLV-OH)
– | 1580 ± 77 | CC(C)C[C@H](NC(=O)CNC(=O)[C@H](CCC(N)=O)NC(=O)[C@H](CC(C)C)NC(=O)[C@H](CC(C)C)NC(=O)[C@H](CCCNC(=N)N)NC(=O)[C@H](CCC(N)=O)NC(=O)[C@H](CC(C)C)NC(=O)[C@H](CCCNC(=N)N)NC(=O)[C@H](C)NC(=O)CNC(=O)[C@H](CCC(=O)O)NC(=O)[C@H](C)NC(=O)[C@H](CC(C)C)NC(=O)[C@H](CCCNC(=N)N)NC(=O)[C@H](CO)NC(=O)[C@H](CC(C)C)NC(=O)[C@H](CCC(=O)O)NC(=O)[C@H](CO)NC(=O)[C@@H](NC(=O)[C@H](Cc1ccccc1)NC(=O)[C@H](N)CCCNC(=N)N)[C@@H](C)O)C(=O)N[C@H](C(=O)O)C(C)C [Peptide 134] (H-[dR]FTSELSRLAEGARLQRLLQGLV-OH)
– | 1860 ± 159 | CC(C)C[C@H](NC(=O)CNC(=O)[C@H](CCC(N)=O)NC(=O)[C@H](CC(C)C)NC(=O)[C@H](CC(C)C)NC(=O)[C@H](CCCNC(=N)N)NC(=O)[C@H](CCC(N)=O)NC(=O)[C@H](CC(C)C)NC(=O)[C@H](C)NC(=O)[C@H](C)NC(=O)CNC(=O)[C@H](CCC(=O)O)NC(=O)[C@H](CCCNC(=N)N)NC(=O)[C@H](CC(C)C)NC(=O)[C@H](CCCNC(=N)N)NC(=O)[C@H](CO)NC(=O)[C@H](CC(C)C)NC(=O)[C@H](CCC(=O)O)NC(=O)[C@H](CO)NC(=O)[C@@H](NC(=O)[C@H](Cc1ccccc1)NC(=O)[C@H](N)CCCNC(=N)N)[C@@H](C)O)C(=O)N[C@H](C(=O)O)C(C)C [Peptide 137] (H-[dR]FTSELSRLREGAALQRLLQGLV-OH)
– | 1020 ± 107 | CC(C)C[C@H](NC(=O)CNC(=O)[C@H](CCC(N)=O)NC(=O)[C@H](CC(C)C)NC(=O)[C@H](CC(C)C)NC(=O)[C@H](CCCNC(=N)N)NC(=O)[C@H](C)NC(=O)[C@H](CC(C)C)NC(=O)[C@H](CCCNC(=N)N)NC(=O)[C@H](C)NC(=O)CNC(=O)[C@H](CCC(=O)O)NC(=O)[C@H](CCCNC(=N)N)NC(=O)[C@H](CC(C)C)NC(=O)[C@H](CCCNC(=N)N)NC(=O)[C@H](CO)NC(=O)[C@H](CC(C)C)NC(=O)[C@H](CCC(=O)O)NC(=O)[C@H](CO)NC(=O)[C@@H](NC(=O)[C@H](Cc1ccccc1)NC(=O)[C@H](N)CCCNC(=N)N)[C@@H](C)O)C(=O)N[C@H](C(=O)O)C(C)C [Peptide 139] (H-[dR]FTSELSRLREGARLARLLQGLV-OH)
